Patent US10196381B2, “Benzimidazole-2-piperazine heterocyclic compound, pharmaceutical composition containing the same, preparation method and use thereof” (Shanghai Huilun Life Science & Technology Co., Ltd., priority 2013, dated 2019)

Biological target: PARP-1 enzyme (Homo sapiens (Human), UniProt P09874)
Assay: PARP enzyme activity assay (HT Universal Chemiluminescent PARP Assay Kit, histone-coated wells)
Type: biochemical
Conditions: for inhibition at 0.03 µM: read-out: Inhibition (%) at 30 nM; for inhibition at 0.1 µM: read-out: Inhibition (%) at 100 nM
Description: PARP is an enzyme responsible for post-translational modification, which may be activated by means of DNA damage. The process catalyzed by PARP in vivo is mainly NAD-dependent poly(ADP-ribosyl)ation, in which the substrates are mainly some nuclear proteins including PARP, one example of which is histone. In the present invention, the PARP activity is assayed by determining the poly(ADP-ribosyl)ation degree of histone coated in a 96-well plate in the presence of NAD, and the PARP activity under the action of a PARP inhibitor is correspondingly assayed, thereby evaluating the degree of inhibition of the compounds on PARP activity. Poly(ADP-ribosyl)ation of nuclear proteins is a post-translational modification occurred in response to DNA damage. PARP is the abbreviation of poly(ADP-ribose)polymerase, which catalyzes the attachment of poly(ADP-ribose) to an adjacent nuclear protein in the presence of NAD, thus eliciting a mechanism of DNA repair through base excision repair pathway. The level of biotin-labeled ADP-ribose binding to histone can be detected by using the HT Universal Chemiluminescent PARP Assay Kit commercially available from Trevigen Corp. […] HT Universal Chemiluminescent PARP Assay Kit with Histone-coated Strip Wells, commercially available from Trevigen (US), Catalog #: 4676-096-K. […] 4. The PARP enzyme was carefully diluted with the 1×PARP buffer just before use, the diluted enzyme solution should be used as quickly as possible and the remaining solution should be discarded. […] 2. […] 1. […] 2. […] 4. […] After washing, equal volume of the PeroxyGlow A and B solutions were uniformly mixed, 100 μl of the solution was added to each well, and the chemiluminescent signals were recorded on a plate reader immediately. The readout of each well is converted into the percent inhibition. […] Note: the readout of the positive control well is designated as 100% enzyme activity; the readout of the negative control well is designated as 0% enzyme activity; and the activity X refers to the readout from respective concentration of each sample.

PARP-1 enzyme, sequence (P09874 whole entry): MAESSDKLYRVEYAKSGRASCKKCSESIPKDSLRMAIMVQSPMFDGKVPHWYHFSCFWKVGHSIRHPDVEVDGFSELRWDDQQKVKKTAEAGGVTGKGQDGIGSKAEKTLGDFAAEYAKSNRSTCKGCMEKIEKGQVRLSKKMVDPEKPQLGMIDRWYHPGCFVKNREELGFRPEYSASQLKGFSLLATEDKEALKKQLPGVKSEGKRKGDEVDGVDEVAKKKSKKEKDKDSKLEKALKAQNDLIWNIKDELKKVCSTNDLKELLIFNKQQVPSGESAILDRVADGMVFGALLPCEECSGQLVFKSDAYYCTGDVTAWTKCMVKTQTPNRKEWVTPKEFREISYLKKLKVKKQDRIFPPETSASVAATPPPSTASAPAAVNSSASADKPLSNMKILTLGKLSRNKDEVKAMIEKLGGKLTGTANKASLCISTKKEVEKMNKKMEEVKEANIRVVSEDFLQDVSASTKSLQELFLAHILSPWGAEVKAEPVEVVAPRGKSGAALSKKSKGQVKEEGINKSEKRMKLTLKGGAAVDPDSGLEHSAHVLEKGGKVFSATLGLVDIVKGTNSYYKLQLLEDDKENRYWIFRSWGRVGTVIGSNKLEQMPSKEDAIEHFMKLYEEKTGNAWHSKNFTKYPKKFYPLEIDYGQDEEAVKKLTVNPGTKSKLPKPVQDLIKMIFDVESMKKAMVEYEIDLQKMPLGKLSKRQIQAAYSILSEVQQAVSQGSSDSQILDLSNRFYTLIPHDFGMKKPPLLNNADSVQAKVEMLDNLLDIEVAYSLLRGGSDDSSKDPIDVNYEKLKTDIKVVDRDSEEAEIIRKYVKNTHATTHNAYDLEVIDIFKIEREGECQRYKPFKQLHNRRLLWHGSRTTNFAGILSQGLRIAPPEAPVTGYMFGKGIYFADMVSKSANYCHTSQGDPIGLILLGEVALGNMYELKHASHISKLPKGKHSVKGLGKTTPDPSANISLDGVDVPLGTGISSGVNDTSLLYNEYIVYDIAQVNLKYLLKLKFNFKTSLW

SMILES: CN(C)C(=O)c1ncc(N2CCN(c3nc4c(C(N)=O)cc(F)cc4[nH]3)CC2)cn1 [Compound (41), 2-(4-(2-dimethylcarbamoylpyrimidin-5-yl)piperazin-1-yl)-6-fluoro-1H-benzimidazole-4-carboxamide]
- inhibition at 0.03 µM: 75%
- inhibition at 0.1 µM: 92%

SMILES: NC(=O)c1cc(F)cc2[nH]c(N3CCN(c4ncc(F)cn4)CC3)nc12 [Compound (17), 6-fluoro-2-(4-(5-fluoropyrimidin-2-yl)piperazin-1-yl)-1H-benzimidazole-4-carboxamide]
- inhibition at 0.03 µM: 56%
- inhibition at 0.1 µM: 78%

SMILES: CNC(=O)c1cccnc1N1CCN(c2nc3c(C(N)=O)cc(F)cc3[nH]2)CC1 [Compound (20), 6-fluoro-2-(4-(3-methylcarbamoylpyridin-2-yl)piperazin-1-yl)-1H-benzimidazole-4-carboxamide]
- inhibition at 0.03 µM: 39%
- inhibition at 0.1 µM: 67%

SMILES: NC(=O)c1cccc2[nH]c(N3CCN(c4nccc(C(F)(F)F)n4)CC3)nc12 [Compound (9), 2-(4-(4-trifluoromethylpyrimidin-2-yl)piperazin-1-yl)-1H-benzimidazole-4-carboxamide]
- inhibition at 0.03 µM: 16%
- inhibition at 0.1 µM: 31%

SMILES: NC(=O)c1cccc2[nH]c(N3CCN(c4ncc(N)cn4)CC3)nc12 [Compound (6), 2-(4-(5-aminopyrimidin-2-yl)piperazin-1-yl)-1H-benzimidazole-4-carboxamide]
- inhibition at 0.03 µM: 26%
- inhibition at 0.1 µM: 54%

SMILES: CNC(=O)c1cnc(N2CCN(c3nc4c(C(N)=O)cc(F)cc4[nH]3)CC2)nc1 [Compound (22), 6-fluoro-2-(4-(5-methylcarbamoylpyrimidin-2-yl)piperazin-1-yl)-1H-benzimidazole-4-carboxamide]
- inhibition at 0.03 µM: 71%
- inhibition at 0.1 µM: 93%

SMILES: CCNc1cnc(N2CCN(c3nc4c(C(N)=O)cccc4[nH]3)CC2)nc1 [Compound (3), 2-(4-(5-ethylaminopyrimidin-2-yl)piperazin-1-yl)-1H-benzimidazole-4-carboxamide]
- inhibition at 0.03 µM: 6%
- inhibition at 0.1 µM: 13%

SMILES: CNC(=O)c1cnc(N2CCN(c3nc4c(C(N)=O)cc(F)cc4[nH]3)CC2)cn1 [Compound (25), 6-fluoro-2-(4-(5-methylcarbamoylpyrazin-2-yl)piperazin-1-yl)-1H-benzimidazole-4-carboxamide]
- inhibition at 0.03 µM: 79%
- inhibition at 0.1 µM: 92%

SMILES: NC(=O)c1cc(F)cc2[nH]c(N3CCN(c4ccc(C(F)(F)F)nn4)CC3)nc12 [Compound (31), 6-fluoro-2-(4-(6-trifluoromethylpyridazin-3-yl)piperazin-1-yl)-1H-benzimidazole-4-carboxamide]
- inhibition at 0.03 µM: 80%
- inhibition at 0.1 µM: 95%

SMILES: CN(C)C(=O)c1ccc(N2CCN(c3nc4c(C(N)=O)cccc4[nH]3)CC2)nc1 [Compound (15), 2-(4-(5-dimethylcarbamoylpyridin-2-yl)piperazin-1-yl)-1H-benzimidazole-4-carboxamide]
- inhibition at 0.03 µM: 44%
- inhibition at 0.1 µM: 70%

SMILES: COc1cnc(N2CCN(c3nc4c(C(N)=O)cccc4[nH]3)CC2)nc1 [Compound (5), 2-(4-(5-methoxypyrimidin-2-yl)piperazin-1-yl)-1H-benzimidazole-4-carboxamide]
- inhibition at 0.03 µM: 32%
- inhibition at 0.1 µM: 60%

SMILES: CNC(=O)c1ccc(N2CCN(c3nc4c(C(N)=O)cc(F)cc4[nH]3)CC2)nc1 [Compound (24), 6-fluoro-2-(4-(5-methylcarbamoylpyridin-2-yl)piperazin-1-yl)-1H-benzimidazole-4-carboxamide]
- inhibition at 0.03 µM: 45%
- inhibition at 0.1 µM: 65%

SMILES: CC(C)(C)NC(=O)c1cnc(N2CCN(c3nc4c(C(N)=O)cc(F)cc4[nH]3)CC2)cn1 [Compound (28), 2-(4-(5-t-butylcarbamoylpyrazin-2-yl)piperazin-1-yl)-6-fluoro-1H-benzimidazole-4-carboxamide]
- inhibition at 0.03 µM: 53%
- inhibition at 0.1 µM: 78%

SMILES: CNC(=O)c1ccc(N2CCN(c3nc4c(C(N)=O)cc(F)cc4[nH]3)CC2)nn1 [Compound (23), 6-fluoro-2-(4-(6-methylcarbamoylpyridazin-3-yl)piperazin-1-yl)-1H-benzimidazole-4-carboxamide]
- inhibition at 0.03 µM: 78%
- inhibition at 0.1 µM: 89%

SMILES: CCNC(=O)c1cnc(N2CCN(c3nc4c(C(N)=O)cc(F)cc4[nH]3)CC2)cn1 [Compound (26), 2-(4-(5-ethylcarbamoylpyrazin-2-yl)piperazin-1-yl)-6-fluoro-1H-benzimidazole-4-carboxamide]
- inhibition at 0.03 µM: 80%
- inhibition at 0.1 µM: 94%

SMILES: N#Cc1cnc(N2CCN(c3nc4c(C(N)=O)cc(F)cc4[nH]3)CC2)nc1 [Compound (19), 2-(4-(5-cyanopyrimidin-2-yl)piperazin-1-yl)-6-fluoro-1H-benzimidazole-4-carboxamide]
- inhibition at 0.03 µM: 77%
- inhibition at 0.1 µM: 93%
